Results on 18 molecules are retold here after ChEMBL document CHEMBL3588818 (Eur J Med Chem, 2015).

In assay [1] the target is T1, Vesicular acetylcholine transporter (Rattus norvegicus, UniProt Q62666).
T1 sequence (Q62666 whole entry): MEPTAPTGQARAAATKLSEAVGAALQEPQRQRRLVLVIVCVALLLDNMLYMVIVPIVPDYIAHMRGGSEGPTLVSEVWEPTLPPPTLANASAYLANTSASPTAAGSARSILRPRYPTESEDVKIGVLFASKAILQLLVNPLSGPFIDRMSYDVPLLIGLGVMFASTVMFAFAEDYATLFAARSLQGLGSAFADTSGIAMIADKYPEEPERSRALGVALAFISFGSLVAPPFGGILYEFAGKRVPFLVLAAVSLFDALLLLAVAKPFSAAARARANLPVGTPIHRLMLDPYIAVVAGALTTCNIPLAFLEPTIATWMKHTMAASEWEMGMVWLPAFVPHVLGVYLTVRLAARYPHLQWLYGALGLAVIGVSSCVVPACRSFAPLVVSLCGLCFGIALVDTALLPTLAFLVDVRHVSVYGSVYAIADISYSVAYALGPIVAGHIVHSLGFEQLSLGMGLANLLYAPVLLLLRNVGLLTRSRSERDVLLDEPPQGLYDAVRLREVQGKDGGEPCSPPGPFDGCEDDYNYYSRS
The experiment in a line: Displacement of (-)-[3H]vesamicol from rat VAChT expressed in PC12 cell membranes incubated for 2 hrs by liquid scintillation counting based competitive radioligand binding assay. Particulars: read-out: Ki(app). On the set-up: species or system PC-12.

The target of assay [2] is Sigma non-opioid intracellular receptor 1 (Rattus norvegicus, UniProt Q9R0C9). Briefly: Displacement of […] from sigma1 receptor in Sprague-Dawley rat cortical membranes incubated for 2 hrs by liquid scintillation counting based competitive radioligand binding assay. Particulars: read-out: Ki(app).
Chain of Sigma non-opioid intracellular receptor 1 (Q9R0C9 whole entry): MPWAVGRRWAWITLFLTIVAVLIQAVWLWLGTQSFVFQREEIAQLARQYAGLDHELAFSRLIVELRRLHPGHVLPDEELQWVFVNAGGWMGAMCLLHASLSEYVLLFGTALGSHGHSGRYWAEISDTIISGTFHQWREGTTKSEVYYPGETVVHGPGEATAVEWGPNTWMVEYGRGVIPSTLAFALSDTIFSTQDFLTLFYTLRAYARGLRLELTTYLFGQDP
Assay [3] can be described thus: Displacement of [3H]DTG from sigma2 receptor in Sprague-Dawley rat liver membranes incubated for 2 hrs in presence of dextrallorphan by liquid scintillation counting based competitive radioligand binding assay. Particulars: read-out: Ki(app).
Assay [4] has as its system PC-12. Briefly: Selectivity index, ratio of Ki for sigma1 receptor in Sprague-Dawley rat cortical membranes to Ki for rat VAChT expressed in PC12 cell membranes. It is filed as cell-based.
In assay [5] the test system is PC-12. The experiment in a line: Selectivity index, ratio of Ki for sigma2 receptor in Sprague-Dawley rat liver membranes to Ki for rat VAChT expressed in PC12 cell membranes. The class given is cell-based.
Assay [6] deals with T2, Vesicular acetylcholine transporter (Torpedo californica, UniProt P81721).
T2 sequence (P81721 whole entry): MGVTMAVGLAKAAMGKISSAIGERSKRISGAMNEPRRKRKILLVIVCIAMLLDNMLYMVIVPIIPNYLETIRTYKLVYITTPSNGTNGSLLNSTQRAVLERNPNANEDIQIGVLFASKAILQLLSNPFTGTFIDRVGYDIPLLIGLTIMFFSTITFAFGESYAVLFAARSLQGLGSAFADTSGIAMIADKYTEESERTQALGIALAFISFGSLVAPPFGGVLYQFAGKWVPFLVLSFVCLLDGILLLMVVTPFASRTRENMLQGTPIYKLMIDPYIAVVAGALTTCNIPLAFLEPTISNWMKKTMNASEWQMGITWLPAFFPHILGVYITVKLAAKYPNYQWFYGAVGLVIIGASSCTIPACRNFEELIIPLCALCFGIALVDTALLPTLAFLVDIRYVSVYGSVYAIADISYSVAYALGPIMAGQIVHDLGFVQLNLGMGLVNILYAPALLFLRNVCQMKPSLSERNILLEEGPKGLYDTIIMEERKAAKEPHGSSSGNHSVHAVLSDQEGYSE
The experiment in a line: Displacement of (-)-[3H]vesamicol from VAChT in Torpedo californica electric organ synaptic vesicles. Particulars: read-out: Ki(app). On the set-up: species or system Tetronarce californica.

With `O=C(c1ccc(F)cc1)C1CCN([C@@H]2CCCC[C@H]2O)CC1` (racemic), the Ki was determined as 3240 nM in assay [1], 60.9 nM in assay [2] and 730 nM in assay [3]. Further, the Ratio Ki with PC-12 [4] is below 0.1; with PC-12 [5] it was 0.2.
In the case of `O[C@@H]1CC=CC[C@H]1N1CCC(c2ccccc2)CC1` (racemic), the Ki in assay [1] is 18.4 nM; in assay [6], 0.34 nM; in assay [2], 5.8 nM; in assay [3] it was 77.1 nM. Further, the Ratio Ki came out at 0.3 in the assay on PC-12 [4] and 4.2 with PC-12 [5].
On to `O=C(Nc1cccc2c1C[C@@H](N1CCC(c3ccccc3)CC1)[C@H](O)C2)c1ccc(F)cc1` (racemic), for which the Ki in assay [1] worked out at 156 nM; in assay [2] it was 6430 nM; in assay [3], 3620 nM. The Ratio Ki in the assay with PC-12 [4] was 41.2; with PC-12 [5] it was 23.2.
The corresponding values for `O=C(Nc1cccc2c1C[C@@H](N1CCC(Cc3ccccc3)CC1)[C@H](O)C2)c1ccc(F)cc1` (racemic) are 527 nM, 1770 nM, 2080 nM, 3.4 and 3.9.
With `O=C(Nc1cccc2c1C[C@@H](O)[C@H](N1CCC(c3ccccc3)CC1)C2)c1ccc(F)cc1` (racemic), the Ki in assay [1] was 188 nM; in assay [2], 626 nM; in assay [3] it was 1380 nM. Further, the Ratio Ki in the assay with PC-12 [4] was determined as 3.3; in the assay with PC-12 [5], 2.2.
Taken in the same sequence, the figures for `O[C@@H]1CCCC[C@H]1N1CCC(O)(c2ccccc2)CC1` (racemic) were 1000 nM, 454 nM, 1990 nM, 0.4 and 1.9.
Taken in the same sequence, the figures for `CC(=O)C1(c2ccccc2)CCN([C@@H]2CCCC[C@H]2O)CC1` (racemic) were 1460 nM, 22.5 nM, 164 nM, below 0.1 and 0.1.
The corresponding values for `O[C@@H]1CCCC[C@H]1N1CCC(c2ccccc2)(c2ccccc2)CC1` (racemic) are 6710 nM, 43.2 nM, 1830 nM, below 0.1 and 0.3.
For the molecule `O[C@@H]1CCCC[C@H]1N1CCC(Cc2ccccc2)CC1` (racemic), the Ki was 647 nM in assay [1], 20.1 nM in assay [2] and 108 nM in assay [3]. Further, the figures for the Ratio Ki in the assay with PC-12 [4] and in the assay on PC-12 [5] were below 0.1 and 0.2, respectively.
The corresponding values for `O[C@@H]1CC[C@@H](OCc2ccc(F)cc2)C[C@H]1N1CCC(c2ccccc2)CC1` (racemic) are 25.1 nM, 16.6 nM, 53.1 nM, 0.7 and 2.1.
The corresponding values for `O[C@@H]1CC[C@@H](OCc2ccc(F)cc2)C[C@H]1N1CCN(c2ccccc2)CC1` (racemic) are 697 nM, 103 nM, 167 nM, 0.2 and 0.24.
Taken in the same sequence, the figures for `O[C@@H]1CC[C@@H](OCc2ccc(F)cc2)C[C@H]1N1CC=C(c2ccccc2)CC1` (racemic) were 310 nM, 29.9 nM, 46.9 nM, below 0.1 and 0.2.
As to `O[C@@H]1CC[C@@H](OCc2ccc(F)cc2)C[C@H]1N1CCC(O)(c2ccccc2)CC1` (racemic), the Ki in assay [1] came out at 316 nM; in assay [2], 47.3 nM; in assay [3] it was 134 nM. The values for the Ratio Ki with PC-12 [4] and in the assay on PC-12 [5] were 0.2 and 0.4, respectively.
In the case of `CC(=O)C1(c2ccccc2)CCN([C@@H]2C[C@H](OCc3ccc(F)cc3)CC[C@H]2O)CC1` (racemic), the Ki in assay [1] came to 260 nM; in assay [2] it was 63.1 nM; in assay [3] it was 18.8 nM. Also, the Ratio Ki is 0.2 in the assay with PC-12 [4] and below 0.1 in the assay with PC-12 [5].
Take `O[C@@H]1CCCC[C@H]1N1CCN(c2ccccc2)CC1` (racemic): the Ki worked out at 838 nM in assay [1], 83.9 nM in assay [2] and 695 nM in assay [3]. For the same molecule, the Ratio Ki amounted to 0.1 in the assay on PC-12 [4] and 0.8 in the assay with PC-12 [5].
For `O[C@@H]1CCCC[C@H]1N1CC=C(c2ccccc2)CC1` (racemic), the figures for the Ki in assay [1], in assay [2] and in assay [3] were 439 nM, 9.7 nM and 158 nM, respectively. Further, the Ratio Ki is below 0.1 in the assay with PC-12 [4] and 0.4 with PC-12 [5].
Take `O=C(c1ccc(F)cc1)C1CCN([C@@H]2Cc3ccccc3C[C@H]2O)CC1` (racemic): the Ki in assay [1] turned out to be 24.4 nM; in assay [6] it was 2.7 nM; in assay [2] it was 215 nM; in assay [3], 284 nM. Besides, the Ratio Ki with PC-12 [4] turned out to be 8.8; in the assay with PC-12 [5], 1.6.
Consider `Nc1cccc2c1C[C@@H](N1CCC(c3ccccc3)CC1)[C@H](O)C2` (racemic), for which the Ki worked out at 25.1 nM in assay [1], 0.013 nM in assay [6], 119 nM in assay [2] and 474 nM in assay [3]. Also, the Ratio Ki with PC-12 [4] turned out to be 4.7; with PC-12 [5], 18.9.
